Source: patent US12110286B2, “Benzimidazolone derived inhibitors of BCL6” (Cancer Research Technology Limited, priority 2017, dated 2024)

What follows are compounds tested against Trx-6×His-BCL6 (human BCL6 BTB domain covering amino-acid sequence 5-129) (Homo sapiens (Human), UniProt P41182) (assay: HTRF in vitro assay (BCL6 / BCOR-AF633 peptide)). Conditions: further generated data; 1 nM Trx-6×His-BCL6, 300 nM BCOR-AF633 peptide, 0.5 nM anti-6×His-Terbium cryptate.
Type: binding
Description: The % inhibition at each concentration was calculated by normalising FRET ratio to the appropriate high (DMSO with all reagents) and low (DMSO without BCL6) controls.

SMILES	HTRF pIC50
COC(=O)[C@@H](N)CCn1c(=O)n(C)c2ccc(Nc3ccnc(Cl)c3C#N)cc21 [Example 6, Methyl (2S)-2-amino-4-[6-[(2-chloro-3-cyano-4-pyridyl)amino]-3-methyl-2-oxo-benzimidazol-1-yl]butanoate]	6.00
CN1CC(C)(CCn2c(=O)n(C)c3ccc(Nc4ccnc(Cl)c4C#N)cc32)OC1=O (stereo not shown) [Example 33, 2-chloro-4-((3-(2-(3,5-dimethyl-2-oxooxazolidin-5-yl)ethyl)-1-methyl-2-oxo-2,3-dihydro-1H-benzo[d]imidazol-5-yl)amino)nicotinonitrile]	5.43
CCOC(=O)c1cc(Nc2ccc3c(c2)n(CC[C@@H](C)O)c(=O)n3C)n2nccc2n1 [Example 1o, Ethyl 7-[[3-[(3R)-3-hydroxybutyl]-1-methyl-2-oxo-benzimidazol-5-yl]amino]pyrazolo[1,5-a]pyrimidine-5-carboxylate]	5.48
C[C@@H]1CN(c2ncc(Cl)c(Nc3cnc4c(c3)n(CCC(C)(C)O)c(=O)n4CCC(C)(C)O)n2)C[C@H](C)C1(F)F [Example 35r, 6-((5-chloro-2-((3R,5S)-4,4-difluoro-3,5-dimethylpiperidin-1-yl)pyrimidin-4-yl)amino)-1,3-bis(3-hydroxy-3-methylbutyl)-1,3-dihydro-2H-imidazo[4,5-b]pyridin-2-one]	5.98
CCC(Cn1c(=O)n(C)c2ccc(Nc3ccnc(Cl)c3C#N)cc21)N(C)C (stereo not shown) [Example 25b, 2-chloro-4-((3-(2-(dimethylamino)butyl)-1-methyl-2-oxo-2,3-dihydro-1H-benzo[d]imidazol-5-yl)amino)nicotinonitrile: formic acid (1:1)]	5.34
Cn1c(=O)n(C[C@@H]2CCCN2CC(F)(F)F)c2cc(Nc3nc(N4CC(C)(C)OC(C)(C)C4)ncc3Cl)ccc21 [Example 35i, (S)-5-((5-chloro-2-(2,2,6,6-tetramethylmorpholino)pyrimidin-4-yl)amino)-1-methyl-3-((1-(2,2,2-trifluoroethyl)pyrrolidin-2-yl)methyl)-1,3-dihydro-2H-benzo[d]imidazol-2-one]	6.01
COC(=O)C(CCn1c(=O)n(C)c2ccc(Nc3ccnc(Cl)c3C#N)cc21)OC (stereo not shown) [Example 10b]	5.57
Cn1c(=O)n(C[C@@H]2CCCN2CCF)c2cc(Nc3ccnc(Cl)c3C#N)ccc21 [Example 25f, (S)-2-chloro-4-((3-((1-(2-fluoroethyl)pyrrolidin-2-yl)methyl)-1-methyl-2-oxo-2,3-dihydro-1H-benzo[d]imidazol-5-yl)amino)nicotinonitrile: formic acid (1:1)]	5.73
Cn1c(=O)n(CC2COCCN2CC(F)(F)F)c2cc(Nc3ccnc(Cl)c3C#N)ccc21 (stereo not shown) [Example 25a, 2-chloro-4-((1-methyl-2-oxo-3-((4-(2,2,2-trifluoroethyl)morpholin-3-yl)methyl)-2,3-dihydro-1H-benzo[d]imidazol-5-yl)amino)nicotinonitrile]	5.58
Cn1c(=O)n(CCC(C)(C)O)c2cc(Nc3nc(N4CCCCC4)ncc3Cl)ccc21 [Example 20d]	5.92
CCC1(Cn2c(=O)n(C)c3ccc(Nc4nc(N5C[C@@H](C)O[C@@H](C)C5)ncc4Cl)cc32)CN(C)C(=O)O1 (stereo partly shown) [Example 20l]	6.39
Cn1c(=O)n(CC2CCCCN2CC(F)(F)F)c2cc(Nc3ccnc(Cl)c3C#N)ccc21 (stereo not shown) [Example 25e, 2-chloro-4-((1-methyl-2-oxo-3-((1-(2,2,2-trifluoroethyl)piperidin-2-yl)methyl)-2,3-dihydro-1H-benzo[d]imidazol-5-yl)amino)nicotinonitrile]	5.37
Cn1c(=O)n(CCC(C)(C)O)c2cc(Nc3nc(-n4cc(C(F)(F)F)cn4)ncc3Cl)ccc21 [Example 20s]	6.26
Cn1c(=O)n(CCC2(C)CO2)c2cc(Nc3ccnc(Cl)c3C#N)ccc21 (stereo not shown) [Example 32, 2-chloro-4-((1-methyl-3-(2-(2-methyloxiran-2-yl)ethyl)-2-oxo-2,3-dihydro-1H-benzo[d]imidazol-5-yl)amino)nicotinonitrile]	5.44

Second part, the compound after the results:

HTRF pIC50	SMILES
6.35	Cn1ccc(-c2ncc(Cl)c(Nc3ccc4c(c3)n(CCC(C)(C)O)c(=O)n4C)n2)n1 [Example 23a, 5-((5-chloro-2-(1-methyl-1H-pyrazol-3-yl)pyrimidin-4-yl)amino)-3-(3-hydroxy-3-methylbutyl)-1-methyl-1,3-dihydro-2H-benzo[d]imidazol-2-one]
6.15	C[C@@H]1CN(c2ncc(Cl)c(Nc3ccc4c(c3)n(CCC(C)(C)O)c(=O)n4C)n2)C[C@@H]1C [Example 35p, 5-((5-chloro-2-((3R,4S)-3,4-dimethylpyrrolidin-1-yl)pyrimidin-4-yl)amino)-3-(3-hydroxy-3-methylbutyl)-1-methyl-1,3-dihydro-2H-benzo[d]imidazol-2-one]
6.09	Cc1cc(C)n(-c2ncc(Br)c(Nc3ccc4c(c3)n(CCC(C)(C)O)c(=O)n4C)n2)n1 [Example 15q]
5.82	Cc1cc(C)n(-c2nc(C)c(Cl)c(Nc3ccc4c(c3)n(CCC(C)(C)O)c(=O)n4C)n2)n1 [Example 15p]
6.36	Cn1c(=O)n(CCC(C)(C)O)c2cc(Nc3nc(N4C[C@@H](F)[C@@H](F)C4)ncc3Cl)ccc21 [Example 35h, 5-((5-chloro-2-((3R,4S)-3,4-difluoropyrrolidin-1-yl)pyrimidin-4-yl)amino)-3-(3-hydroxy-3-methylbutyl)-1-methyl-1,3-dihydro-2H-benzo[d]imidazol-2-one]
5.45	C[C@@H](O)CCn1c(=O)n(C)c2ccc(Nc3ccnc(Cl)c3Cl)cc21 [Example 1q, 5-[(2,3-dichloro-4-pyridyl)amino]-3-[(3R)-3-hydroxybutyl]-1-methyl-benzimidazol-2-one]
6.44	C[C@@H]1CN(c2ncc(Cl)c(Nc3cc4c(cc3F)n(C)c(=O)n4CCC(C)(C)O)n2)C[C@H](C)O1 [Example 20p]
6.60	Cn1c(=O)n(CCC(C)(C)O)c2cc(Nc3nc(N4CCC(C#N)CC4)ncc3Cl)ccc21 [Example 42a, 1-(5-chloro-4-((3-(3-hydroxy-3-methylbutyl)-1-methyl-2-oxo-2,3-dihydro-1H-benzo[d]imidazol-5-yl)amino)pyrimidin-2-yl)piperidine-4-carbonitrile]
6.56	Cn1c(=O)n(CCC(C)(C)O)c2cc(Nc3nc(N4CCC(CN5CCOCC5)CC4)ncc3Cl)ccc21 [Example 42c, 5-((5-chloro-2-(4-(morpholinomethyl)piperidin-1-yl)pyrimidin-4-yl)amino)-3-(3-hydroxy-3-methylbutyl)-1-methyl-1,3-dihydro-2H-benzo[d]imidazol-2-one]
6.27	CN(C)C(=O)C1CCN(c2ncc(Cl)c(Nc3ccc4c(c3)n(CCC(C)(O)CCO)c(=O)n4C)n2)CC1 (stereo not shown) [Example 15k]

Same assay, conditions: initially generated data; 10 nM Trx-6×His-BCL6, 300 nM BCOR-AF633 peptide, 1 nM anti-6×His-Terbium cryptate

SMILES	HTRF pIC50
COC(=O)[C@@H](N)CCn1c(=O)n(C)c2ccc(Nc3ccnc(Cl)c3C#N)cc21 [Example 6, Methyl (2S)-2-amino-4-[6-[(2-chloro-3-cyano-4-pyridyl)amino]-3-methyl-2-oxo-benzimidazol-1-yl]butanoate]	5.97
CCOC(=O)c1cc(Nc2ccc3c(c2)n(CC[C@@H](C)O)c(=O)n3C)n2nccc2n1 [Example 1o, Ethyl 7-[[3-[(3R)-3-hydroxybutyl]-1-methyl-2-oxo-benzimidazol-5-yl]amino]pyrazolo[1,5-a]pyrimidine-5-carboxylate]	5.58
COC(=O)C(C)CCn1c(=O)n(C)c2ccc(Nc3cc(C(=O)OC(C)C)nc(Cl)c3C#N)cc21 (stereo not shown) [Example 2c, Isopropyl 6-chloro-5-cyano-4-[[3-(4-methoxy-3-methyl-4-oxo-butyl)-1-methyl-2-oxo-benzimidazol-5-yl]amino]pyridine-2-carboxylate]	6.10
COC(=O)C(C)CCn1c(=O)n(C)c2ccc(Nc3cc(C(=O)N(C)C)nc(Cl)c3C#N)cc21 (stereo not shown) [Example 7c, Methyl 4-[6-[[2-chloro-3-cyano-6-(dimethylcarbamoyl)-4-pyridyl]amino]-3-methyl-2-oxo-benzimidazol-1-yl]-2-methyl-butanoate]	5.57
COC(=O)C(CCn1c(=O)n(C)c2ccc(Nc3ccnc(Cl)c3C#N)cc21)OC (stereo not shown) [Example 10b]	5.71
C[C@@H](O)CCn1c(=O)n(C)c2ccc(Nc3ccnc(Cl)c3Cl)cc21 [Example 1q, 5-[(2,3-dichloro-4-pyridyl)amino]-3-[(3R)-3-hydroxybutyl]-1-methyl-benzimidazol-2-one]	5.49

Same assay, conditions: result in words

SMILES	activity in the HTRF assay
CCN(CC)CCn1c(=O)n(C)c2ccc(Nc3ccnc(Cl)c3C#N)cc21 [2-chloro-4-((3-(2-(diethylamino)ethyl)-1-methyl-2-oxo-2,3-dihydro-1H-benzo[d]imidazol-5-yl)amino)nicotinonitrile]	did not exhibit the desired activity
Cn1c(=O)n(CC2CC(C)(C)C2)c2cc(Nc3ccnc(Cl)c3C#N)ccc21 [2-chloro-4-((3-((3,3-dimethylcyclobutyl)methyl)-1-methyl-2-oxo-2,3-dihydro-1H-benzo[d]imidazol-5-yl)amino)nicotinonitrile]	did not exhibit the desired activity
Cc1nccc(Nc2ccc3c(c2)n(C)c(=O)n3C)c1C#N [4-((1,3-dimethyl-2-oxo-2,3-dihydro-1H-benzo[d]imidazol-5-yl)amino)-2-methylnicotinonitrile]	did not exhibit the desired activity
Cn1c(=O)n(CC2(CO)COC2)c2cc(Nc3ccnc(Cl)c3C#N)ccc21 [2-chloro-4-((3-((3-(hydroxymethyl)oxetan-3-yl)methyl)-1-methyl-2-oxo-2,3-dihydro-1H-benzo[d]imidazol-5-yl)amino)nicotinonitrile]	did not exhibit the desired activity

Continued, values first:

activity in the HTRF assay	SMILES
did not exhibit the desired activity	Cn1c(=O)n(CCC(C)(C)O)c2cc(Nc3cc4nccn4cc3Cl)ccc21 [5-((6-chloroimidazo[1,2-a]pyridin-7-yl)amino)-3-(3-hydroxy-3-methylbutyl)-1-methyl-1,3-dihydro-2H-benzo[d]imidazol-2-one]
did not exhibit the desired activity	Cn1c(=O)n(CCC(C)(C)O)c2cc(Nc3nc(Cl)ncc3Cl)ncc21 [6-((2,5-dichloropyrimidin-4-yl)amino)-1-(3-hydroxy-3-methylbutyl)-3-methyl-1,3-dihydro-2H-imidazo[4,5-c]pyridin-2-one]
did not exhibit the desired activity	CCC(C)(O)Cn1c(=O)n(C)c2ccc(Nc3ccnc(Cl)c3C#N)cc21 (stereo not shown) [2-chloro-4-((3-(2-hydroxy-2-methylbutyl)-1-methyl-2-oxo-2,3-dihydro-1H-benzo[d]imidazol-5-yl)amino)nicotinonitrile]
